Measurements from PubChem BioAssay AID1963971 (Molecular Pharmacology Branch, DTP, NCI, 2024).

System: 953936-095-R-J2-PDC spheroids with HUVEC/MSC, viability
Test: Anticancer human tumor 953936-095-R-J2-PDC patient-derived cervical squamous cell carcinoma cell line growth inhibition [PI3K]
Conditions: for IC50: curve of first compound; for viability, T/C: stronger effect = lower value
Outline: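 High-throughput combination screen: PI3K inhibitors crossed with targeted small molecules on complex spheroids of tumor cells, HUVEC and MSCs at 37 degrees C, 5% CO2. Top concentration was at or near clinical Cmax (otherwise 10 microM), with half-log decrements.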

[1] = second compound 0.00316 µM, first compound 0.0316 µM
[2] = second compound 0.00316 µM, first compound 0.1 µM
[3] = second compound 0.00316 µM, first compound 0.316 µM
[4] = second compound 0.00316 µM, first compound 1 µM
[5] = second compound 0.00316 µM, first compound 3.16 µM
[6] = second compound 0.00316 µM, first compound 10 µM
[7] = second compound 0.01 µM, first compound 0.0316 µM
[8] = second compound 0.01 µM, first compound 0.1 µM
[9] = second compound 0.01 µM, first compound 0.316 µM
[10] = second compound 0.01 µM, first compound 1 µM
[11] = second compound 0.01 µM, first compound 3.16 µM
[12] = second compound 0.01 µM, first compound 10 µM
[13] = second compound 0.0316 µM, first compound 0.0316 µM
[14] = second compound 0.0316 µM, first compound 0.1 µM
[15] = second compound 0.0316 µM, first compound 0.316 µM
[16] = second compound 0.0316 µM, first compound 1 µM
[17] = second compound 0.0316 µM, first compound 3.16 µM
[18] = second compound 0.0316 µM, first compound 10 µM
[19] = second compound 0.1 µM, first compound 0.0316 µM
[20] = second compound 0.1 µM, first compound 0.1 µM
[21] = second compound 0.1 µM, first compound 0.316 µM
[22] = second compound 0.1 µM, first compound 1 µM
[23] = second compound 0.1 µM, first compound 3.16 µM
[24] = second compound 0.1 µM, first compound 10 µM
[25] = second compound 0.316 µM, first compound 0.0316 µM
[26] = second compound 0.316 µM, first compound 0.1 µM
[27] = second compound 0.316 µM, first compound 0.316 µM
[28] = second compound 0.316 µM, first compound 1 µM
[29] = second compound 0.316 µM, first compound 3.16 µM
[30] = second compound 0.316 µM, first compound 10 µM
[31] = second compound 1 µM, first compound 0.0316 µM
[32] = second compound 1 µM, first compound 0.1 µM
[33] = second compound 1 µM, first compound 0.316 µM
[34] = second compound 1 µM, first compound 1 µM
[35] = second compound 1 µM, first compound 3.16 µM
[36] = second compound 1 µM, first compound 10 µM
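Further: spheroids exposed to compounds for seven days before read-out.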

Compound: CC(C)NCC(C(=O)N1CCN(c2ncnc3c2C(C)CC3O)CC1)c1ccc(Cl)cc1 (stereo unspecified) + COc1c(OCCCN2CCOCC2)ccc2c3n(c(=NC(=O)c4cnc(N)nc4)nc12)CCN3
- IC50 (second compound 0.00316 µM): 793 nM
- IC50 (second compound 0.01 µM): 537 nM
- IC50 (second compound 0.0316 µM): < 31.6 nM
- IC50 (second compound 0.1 µM): < 31.6 nM
- IC50 (second compound 0.316 µM): < 31.6 nM
- IC50 (second compound 1 µM): < 31.6 nM
- viability, T/C [1]: 80.9%
- viability, T/C [2]: 85.2%
- viability, T/C [3]: 66.5%
- viability, T/C [4]: 46.5%
- viability, T/C [5]: 21%
- viability, T/C [6]: 11.6%
- viability, T/C [7]: 68.9%
- viability, T/C [8]: 69.2%
- viability, T/C [9]: 62.2%
- viability, T/C [10]: 35.6%
- viability, T/C [11]: 16.6%
- viability, T/C [12]: 9.89%
- viability, T/C [13]: 44.4%
- viability, T/C [14]: 38.5%
- viability, T/C [15]: 35.7%
- viability, T/C [16]: 24%
- viability, T/C [17]: 12.2%
- viability, T/C [18]: 6.65%
- viability, T/C [19]: 18.9%
- viability, T/C [20]: 16.4%
- viability, T/C [21]: 16.3%
- viability, T/C [22]: 12.4%
- viability, T/C [23]: 6.76%
- viability, T/C [24]: 3.98%
- viability, T/C [25]: 6.59%
- viability, T/C [26]: 6.54%
- viability, T/C [27]: 5.22%
- viability, T/C [28]: 4.04%
- viability, T/C [29]: 2.93%
- viability, T/C [30]: 1.71%
- viability, T/C [31]: 1.44%
- viability, T/C [32]: 2.11%
- viability, T/C [33]: 1.2%
- viability, T/C [34]: 1.24%
- viability, T/C [35]: 0.83%
- viability, T/C [36]: 0.81%

Compound: CCN1CCN(Cc2ccc(Nc3ncc(F)c(-c4cc(F)c5nc(C)n(C(C)C)c5c4)n3)nc2)CC1 + COc1c(OCCCN2CCOCC2)ccc2c3n(c(=NC(=O)c4cnc(N)nc4)nc12)CCN3
- IC50 (second compound 0.00316 µM): > 1000 nM
- IC50 (second compound 0.01 µM): > 1000 nM
- IC50 (second compound 0.0316 µM): < 3.16 nM
- IC50 (second compound 0.1 µM): < 3.16 nM
- IC50 (second compound 0.316 µM): < 3.16 nM
- IC50 (second compound 1 µM): < 3.16 nM
- viability, T/C (second compound 0.00316 µM, first compound 0.00316 µM): 92.5%
- viability, T/C (second compound 0.00316 µM, first compound 0.01 µM): 91.2%
- viability, T/C [1]: 87%
- viability, T/C [2]: 91.7%
- viability, T/C [3]: 76.5%
- viability, T/C [4]: 67.7%
- viability, T/C (second compound 0.01 µM, first compound 0.00316 µM): 70.8%
- viability, T/C (second compound 0.01 µM, first compound 0.01 µM): 75%
- viability, T/C [7]: 69.7%
- viability, T/C [8]: 60.7%
- viability, T/C [9]: 56%
- viability, T/C [10]: 55.5%
- viability, T/C (second compound 0.0316 µM, first compound 0.00316 µM): 40.5%
- viability, T/C (second compound 0.0316 µM, first compound 0.01 µM): 40.9%
- viability, T/C [13]: 37.7%
- viability, T/C [14]: 33.1%
- viability, T/C [15]: 35.9%
- viability, T/C [16]: 31.7%
- viability, T/C (second compound 0.1 µM, first compound 0.00316 µM): 20%
- viability, T/C (second compound 0.1 µM, first compound 0.01 µM): 17.5%
- viability, T/C [19]: 15.2%
- viability, T/C [20]: 13.8%
- viability, T/C [21]: 14.2%
- viability, T/C [22]: 15.6%
- viability, T/C (second compound 0.316 µM, first compound 0.00316 µM): 6%
- viability, T/C (second compound 0.316 µM, first compound 0.01 µM): 5.63%
- viability, T/C [25]: 4.91%
- viability, T/C [26]: 5.77%
- viability, T/C [27]: 4.23%
- viability, T/C [28]: 6.22%
- viability, T/C (second compound 1 µM, first compound 0.00316 µM): 1.99%
- viability, T/C (second compound 1 µM, first compound 0.01 µM): 1.61%
- viability, T/C [31]: 1.43%
- viability, T/C [32]: 1.48%
- viability, T/C [33]: 1.73%
- viability, T/C [34]: 2.54%

Compound: Cn1ncc(Cl)c1-c1cc(C(=O)NC(CN)Cc2cccc(F)c2)sc1Cl (stereo unspecified) + COc1c(OCCCN2CCOCC2)ccc2c3n(c(=NC(=O)c4cnc(N)nc4)nc12)CCN3
- IC50 (second compound 0.00316 µM): 486 nM
- IC50 (second compound 0.01 µM): 337 nM
- IC50 (second compound 0.0316 µM): < 31.6 nM
- IC50 (second compound 0.1 µM): < 31.6 nM
- IC50 (second compound 0.316 µM): < 31.6 nM
- IC50 (second compound 1 µM): < 31.6 nM
- viability, T/C [1]: 81.2%
- viability, T/C [2]: 85.4%
- viability, T/C [3]: 54.1%
- viability, T/C [4]: 36.5%
- viability, T/C [5]: 17.8%
- viability, T/C [6]: 10.2%
- viability, T/C [7]: 69.4%
- viability, T/C [8]: 68.6%
- viability, T/C [9]: 49.8%
- viability, T/C [10]: 28.7%
- viability, T/C [11]: 14.4%
- viability, T/C [12]: 8.14%
- viability, T/C [13]: 39.1%
- viability, T/C [14]: 36.8%
- viability, T/C [15]: 32.5%
- viability, T/C [16]: 19.1%
- viability, T/C [17]: 9.8%
- viability, T/C [18]: 4.58%
- viability, T/C [19]: 21.8%
- viability, T/C [20]: 17.8%
- viability, T/C [21]: 14.3%
- viability, T/C [22]: 12.9%
- viability, T/C [23]: 6.24%
- viability, T/C [24]: 2.41%
- viability, T/C [25]: 5.73%
- viability, T/C [26]: 5.77%
- viability, T/C [27]: 6.01%
- viability, T/C [28]: 3.54%
- viability, T/C [29]: 3.19%
- viability, T/C [30]: 1.52%
- viability, T/C [31]: 1.54%
- viability, T/C [32]: 1.61%
- viability, T/C [33]: 1.15%
- viability, T/C [34]: 1.37%
- viability, T/C [35]: 1.11%
- viability, T/C [36]: 0.46%
